# In the NIST ThermoML archive (doi:10.1016/j.jct.2018.05.019):
# Numbers after ± are expanded uncertainties.
# Settings: 101.33 kPa, Liquid, transient hot wire
structure (smiles),measurement,setting,value
CCCCCCCCC(=O)OC [methyl nonanoate],thermal conductivity,278.44 K,0.1448 ± 0.0059 W/m/K
same,thermal conductivity,283.5 K,0.1441 ± 0.0059 W/m/K
same,thermal conductivity,288.5 K,0.1428 ± 0.0058 W/m/K
same,thermal conductivity,293.36 K,0.1418 ± 0.0058 W/m/K
same,thermal conductivity,298.3 K,0.141 ± 0.0058 W/m/K
same,thermal conductivity,303.31 K,0.1393 ± 0.0057 W/m/K
same,thermal conductivity,308.24 K,0.1387 ± 0.0057 W/m/K
same,thermal conductivity,313.3 K,0.1371 ± 0.0056 W/m/K
same,thermal conductivity,318.29 K,0.1365 ± 0.0056 W/m/K
same,thermal conductivity,323.25 K,0.1347 ± 0.0055 W/m/K
same,thermal conductivity,328.25 K,0.1337 ± 0.0055 W/m/K
same,thermal conductivity,333.06 K,0.1327 ± 0.0054 W/m/K
same,thermal conductivity,338.16 K,0.1313 ± 0.0054 W/m/K
same,thermal conductivity,343.23 K,0.1299 ± 0.0053 W/m/K
same,thermal conductivity,348.07 K,0.1289 ± 0.0053 W/m/K
same,thermal conductivity,353.12 K,0.1277 ± 0.0052 W/m/K
same,thermal conductivity,358.24 K,0.1263 ± 0.0052 W/m/K
same,thermal conductivity,363.07 K,0.1256 ± 0.0051 W/m/K
same,thermal conductivity,368.1 K,0.1242 ± 0.0051 W/m/K
same,thermal conductivity,373.11 K,0.1227 ± 0.005 W/m/K
same,thermal conductivity,378.24 K,0.1213 ± 0.005 W/m/K
same,thermal conductivity,383.21 K,0.1207 ± 0.0049 W/m/K
CCCCCCCC(=O)OC [methyl octanoate],thermal conductivity,273.56 K,0.145 ± 0.0059 W/m/K
same,thermal conductivity,278.48 K,0.1446 ± 0.0059 W/m/K
same,thermal conductivity,283.44 K,0.1428 ± 0.0058 W/m/K
same,thermal conductivity,288.35 K,0.1423 ± 0.0058 W/m/K
same,thermal conductivity,293.42 K,0.1405 ± 0.0057 W/m/K
same,thermal conductivity,298.33 K,0.1395 ± 0.0057 W/m/K
same,thermal conductivity,303.21 K,0.1387 ± 0.0057 W/m/K
same,thermal conductivity,308.29 K,0.1374 ± 0.0056 W/m/K
same,thermal conductivity,313.29 K,0.1361 ± 0.0056 W/m/K
same,thermal conductivity,318.22 K,0.1348 ± 0.0055 W/m/K
same,thermal conductivity,323.2 K,0.1335 ± 0.0055 W/m/K
same,thermal conductivity,328.3 K,0.132 ± 0.0054 W/m/K
same,thermal conductivity,333.41 K,0.1304 ± 0.0053 W/m/K
same,thermal conductivity,338.32 K,0.1294 ± 0.0053 W/m/K
same,thermal conductivity,343.27 K,0.1285 ± 0.0053 W/m/K
same,thermal conductivity,348.12 K,0.1275 ± 0.0052 W/m/K
same,thermal conductivity,353.23 K,0.126 ± 0.0052 W/m/K
same,thermal conductivity,358.28 K,0.1246 ± 0.0051 W/m/K
same,thermal conductivity,363.09 K,0.1238 ± 0.0051 W/m/K
same,thermal conductivity,368.27 K,0.1223 ± 0.005 W/m/K
same,thermal conductivity,373.24 K,0.1212 ± 0.005 W/m/K
same,thermal conductivity,378.21 K,0.1196 ± 0.0049 W/m/K
same,thermal conductivity,383.17 K,0.1189 ± 0.0049 W/m/K
same,thermal conductivity,388.44 K,0.1173 ± 0.0048 W/m/K
same,thermal conductivity,393.54 K,0.116 ± 0.0047 W/m/K
CCO [ethanol],thermal conductivity,276.51 K,0.1719 ± 0.0069 W/m/K
same,thermal conductivity,280.8 K,0.1687 ± 0.0068 W/m/K
same,thermal conductivity,284.27 K,0.1699 ± 0.0068 W/m/K
same,thermal conductivity,290.37 K,0.1677 ± 0.0067 W/m/K
same,thermal conductivity,293.43 K,0.1658 ± 0.0067 W/m/K
O [water],thermal conductivity,293.09 K,0.6056 ± 0.024 W/m/K
same,thermal conductivity,299.55 K,0.613 ± 0.025 W/m/K
same,thermal conductivity,309.83 K,0.6313 ± 0.025 W/m/K
same,thermal conductivity,314.96 K,0.6399 ± 0.026 W/m/K
same,thermal conductivity,319.56 K,0.6399 ± 0.026 W/m/K
same,thermal conductivity,324.64 K,0.6492 ± 0.026 W/m/K
same,thermal conductivity,332.53 K,0.6555 ± 0.026 W/m/K
same,thermal conductivity,339.33 K,0.657 ± 0.026 W/m/K
same,thermal conductivity,340.41 K,0.6654 ± 0.027 W/m/K
same,thermal conductivity,349.41 K,0.6723 ± 0.027 W/m/K
CCCCCC(=O)OC [methyl hexanoate],thermal conductivity,263.83 K,0.1482 ± 0.006 W/m/K
same,thermal conductivity,268.65 K,0.1472 ± 0.0059 W/m/K
same,thermal conductivity,273.7 K,0.1448 ± 0.0058 W/m/K
same,thermal conductivity,278.59 K,0.1439 ± 0.0058 W/m/K
same,thermal conductivity,283.75 K,0.142 ± 0.0057 W/m/K
same,thermal conductivity,288.67 K,0.1405 ± 0.0057 W/m/K
same,thermal conductivity,293.64 K,0.1395 ± 0.0056 W/m/K
same,thermal conductivity,298.72 K,0.1376 ± 0.0055 W/m/K
same,thermal conductivity,303.63 K,0.1367 ± 0.0055 W/m/K
same,thermal conductivity,308.61 K,0.1344 ± 0.0054 W/m/K
same,thermal conductivity,313.6 K,0.1336 ± 0.0054 W/m/K
same,thermal conductivity,321.08 K,0.1315 ± 0.0053 W/m/K
same,thermal conductivity,328.54 K,0.1301 ± 0.0052 W/m/K
same,thermal conductivity,333.52 K,0.1284 ± 0.0052 W/m/K
same,thermal conductivity,338.55 K,0.1269 ± 0.0051 W/m/K
same,thermal conductivity,343.49 K,0.1259 ± 0.0051 W/m/K
same,thermal conductivity,348.48 K,0.1243 ± 0.005 W/m/K
same,thermal conductivity,353.7 K,0.1231 ± 0.005 W/m/K
same,thermal conductivity,358.38 K,0.1219 ± 0.0049 W/m/K
same,thermal conductivity,363.41 K,0.1205 ± 0.0049 W/m/K
same,thermal conductivity,368.5 K,0.1191 ± 0.0048 W/m/K
CCCC(=O)OC [methyl butanoate],thermal conductivity,283.34 K,0.1459 ± 0.0059 W/m/K
same,thermal conductivity,288.3 K,0.1442 ± 0.0058 W/m/K
same,thermal conductivity,293.39 K,0.1416 ± 0.0057 W/m/K
same,thermal conductivity,297.41 K,0.1401 ± 0.0056 W/m/K
same,thermal conductivity,298.44 K,0.1397 ± 0.0056 W/m/K
same,thermal conductivity,301.3 K,0.1391 ± 0.0056 W/m/K
same,thermal conductivity,305.42 K,0.1372 ± 0.0055 W/m/K
same,thermal conductivity,309.31 K,0.136 ± 0.0055 W/m/K
same,thermal conductivity,313.29 K,0.1353 ± 0.0054 W/m/K
same,thermal conductivity,318.38 K,0.1333 ± 0.0054 W/m/K
same,thermal conductivity,323.35 K,0.1314 ± 0.0053 W/m/K
same,thermal conductivity,328.55 K,0.1295 ± 0.0052 W/m/K
same,thermal conductivity,333.25 K,0.128 ± 0.0052 W/m/K
same,thermal conductivity,338.4 K,0.1261 ± 0.0051 W/m/K
same,thermal conductivity,343.25 K,0.1249 ± 0.005 W/m/K
same,thermal conductivity,348.24 K,0.1233 ± 0.005 W/m/K
same,thermal conductivity,353.35 K,0.1215 ± 0.0049 W/m/K
same,thermal conductivity,358.18 K,0.1207 ± 0.0049 W/m/K
CCCCC(=O)OC [methyl pentanoate],thermal conductivity,285.55 K,0.143 ± 0.0058 W/m/K
same,thermal conductivity,290.39 K,0.1405 ± 0.0057 W/m/K
same,thermal conductivity,295.51 K,0.1385 ± 0.0056 W/m/K
same,thermal conductivity,298.99 K,0.1373 ± 0.0055 W/m/K
same,thermal conductivity,305.5 K,0.1356 ± 0.0055 W/m/K
same,thermal conductivity,312.35 K,0.1336 ± 0.0054 W/m/K
same,thermal conductivity,320.42 K,0.1313 ± 0.0053 W/m/K
same,thermal conductivity,327.35 K,0.1295 ± 0.0052 W/m/K
same,thermal conductivity,333.5 K,0.1272 ± 0.0051 W/m/K
same,thermal conductivity,340.41 K,0.1246 ± 0.005 W/m/K
same,thermal conductivity,348.36 K,0.1229 ± 0.005 W/m/K
same,thermal conductivity,355.39 K,0.1212 ± 0.0049 W/m/K
same,thermal conductivity,362.16 K,0.1194 ± 0.0048 W/m/K
